Structures can show the parent of a compound that is named as a salt. Marks after values point to notes of the source that are not given here.
Key:
[1] = test system: α-smooth muscle actin expression in human HSCs; assay: α-smooth muscle actin expression in cultured human hepatic stellate cells (Western blotting); type: cell-based; conditions: human HSCs cultured for 15 days, FIG. 3
Protocol: The effect of LAGS ligands on activation to the pro-fibrogenic phenotype was investigated by measuring the effect of LAGS ligands on expression of α-smooth muscle actin in cultured human hepatic stellate cells. […] Whole cell extracts (10 μg protein/lane) were probed for alpha-smooth muscle actin and GFAP (glial fibrillary acidic protein—loading control) protein expression by Western blotting. Scanned blots were quantitated using Phoretix software (Nonlinear Dynamics, Newcastle, UK).

[2] = biological target: T1, low affinity glucocorticoid binding site (LAGS) (Rattus norvegicus, UniProt P70580); conditions: 1 μM; Wright & Paine (1995); cited from earlier work
[3] = biological target: T1, low affinity glucocorticoid binding site (LAGS); assay: competition analysis with 5×10^−8M [3H]dexamethasone for binding to the LAGS; conditions: for IC50: read-out: IC50% (concentration of unlabelled competitor reducing specific binding of radiolabelled dexamethasone to the LAGS to 50% of control); for competition with dexamethasone for binding to the LAGS (in words): 4° for 8 hours, FIG. 2
Protocol: Washed liver microsomes (100,000 g pellet) were prepared after canulating the portal vein of a rat and perfusing blood from the liver using ice-cooled hanks buffer.
Data were analysed using standard methods.
Potential competitors were added from ethanol stocks such that the final ethanol concentration in the assay was less than 1% (v/v). Specific binding was determined using conventional methods as described above.
Free ligand was removed using dextran-charcoal. […] Competitors were added from ethanol stocks such that final ethanol concentration in the assay was less than 1% (v/v).

[4] = test system: T6 cells (rat hepatic stellate cell line); assay: proliferation of T6 cells (cell count); type: cell-based; conditions: re-treated at 24 hours, counted at 48 hours
Protocol: (§1) However, when rat and human HSCs were treated with ligands of LAGS, the proliferation and activation of the HSCs was inhibited. In addition, T6 cells (rat hepatic stellate cell line) were seeded at low density in 6 well plates in DMEM supplemented with 4% (v/v) FCS. The T6 cells were re-treated at 24 hours and counted at 48 hours. Human hepatic stellate cells were treated at days 2, 5, 7, 9 and 12 of culture and counted on day 15 of culture. Control cells were treated identically with 0.1% (v/v) ethanol used to prepare steroid stocks.

rat and human HSCs = assay: proliferation of rat and human HSCs, results in words; type: cell-based
Protocol: (§2) Rat hepatic stellate cells (HSCs) were isolated by pronase/collagenase perfusion and purified by isopycnic density centrifugation in Opti-prep™ (Nycomed) and elutriation (Wright et al (2001) Gastroenterology 121(3): 685-698). Human HSCs were isolated from discarded resected liver via a similar protocol. The use of human liver tissue for scientific investigation was approved by the UK South and West Local Research Ethics Commitee and was subject to patient consent.
(§3) HSCs were cultured in Dulbecco's modified Eagle Medium (DMEM) containing 4.5 g/l of glucose, supplemented with 16% (v/v) fetal calf serum, 80 u/ml penicillin, 80 μg/ml streptomycin and 32 μg/ml gentamycin. Cells were seeded onto plastic culture dishes and incubated at 37° C. in an humidified incubator gassed with 5% CO2 in air. The culture medium was renewed after the first day and thereafter every 3-4 days.
as §1

[5] = test system: rats administered CCl4 (liver fibrosis); assay: CCl4 liver fibrosis rat in vivo model; conditions: PCN once weekly during CCl4 twice weekly for 6 weeks
Protocol: Rats were administered CCl4 twice weekly for 6 weeks to cause liver fibrosis and administered PCN once weekly during CCl4 treatment.

glucocorticoid receptor = biological target: T2, glucocorticoid receptor (Rattus norvegicus, UniProt P06536); assay: specific binding of 10 nM [3H]dexamethasone in rat liver cytosol
T2 construct: from tissue; host or cells: rat liver cytosol
T2 sequence (P06536 1-795): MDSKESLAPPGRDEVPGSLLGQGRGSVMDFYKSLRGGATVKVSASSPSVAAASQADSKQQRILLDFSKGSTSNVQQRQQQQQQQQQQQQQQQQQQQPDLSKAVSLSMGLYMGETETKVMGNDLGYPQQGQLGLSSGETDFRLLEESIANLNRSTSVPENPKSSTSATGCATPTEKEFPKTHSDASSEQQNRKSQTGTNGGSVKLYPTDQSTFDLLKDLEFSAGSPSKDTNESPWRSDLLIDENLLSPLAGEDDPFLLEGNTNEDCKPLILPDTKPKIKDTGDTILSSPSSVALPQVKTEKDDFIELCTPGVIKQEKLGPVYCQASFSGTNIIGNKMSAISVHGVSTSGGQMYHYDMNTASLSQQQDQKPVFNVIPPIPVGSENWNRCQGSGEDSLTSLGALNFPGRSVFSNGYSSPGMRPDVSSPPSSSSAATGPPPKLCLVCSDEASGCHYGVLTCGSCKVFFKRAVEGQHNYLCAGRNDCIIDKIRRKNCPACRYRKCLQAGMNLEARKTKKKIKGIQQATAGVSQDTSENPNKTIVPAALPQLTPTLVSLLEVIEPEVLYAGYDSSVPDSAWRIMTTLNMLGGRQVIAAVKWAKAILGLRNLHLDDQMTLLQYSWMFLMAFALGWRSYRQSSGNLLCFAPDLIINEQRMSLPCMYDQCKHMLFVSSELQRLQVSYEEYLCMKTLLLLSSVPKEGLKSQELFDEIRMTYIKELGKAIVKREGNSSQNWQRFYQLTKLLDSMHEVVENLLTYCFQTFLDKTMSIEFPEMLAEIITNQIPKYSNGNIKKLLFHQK

human HSCs = assay: proliferation of human hepatic stellate cells (cell count); type: cell-based; conditions: treated at days 2, 5, 7, 9 and 12, counted on day 15
Protocol: as §2, §3
However, when rat and human HSCs were treated with ligands of LAGS, the proliferation and activation of the HSCs was inhibited. In addition, T6 cells (rat hepatic stellate cell line) were seeded at low density in 6 well plates in DMEM supplemented with 4% (v/v) FCS. The T6 cells were re-treated at 24 hours and counted at 48 hours. Human hepatic stellate cells were treated at days 2, 5, 7, 9 and 12 of culture and counted on day 15 of culture. […]

[6] = biological target: T1, low affinity glucocorticoid binding site (LAGS); assay: specific binding of 10 nM [3H]dexamethasone in rat liver microsomes; conditions: read-out: % specific binding compared to dexamethasone alone, microsomes

T1 sequence (P70580 2-195): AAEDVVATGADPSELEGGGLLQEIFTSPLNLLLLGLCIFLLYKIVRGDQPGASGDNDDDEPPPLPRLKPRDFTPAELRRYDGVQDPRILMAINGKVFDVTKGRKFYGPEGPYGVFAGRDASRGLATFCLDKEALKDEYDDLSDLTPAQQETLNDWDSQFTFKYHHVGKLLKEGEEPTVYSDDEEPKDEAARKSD

oestradiol
expression of α-smooth muscle actin (in words) ([1]; 1 μM oestradiol): inhibited expression of α-smooth muscle actin | binding to the LAGS (in words) [2]: a ligand for the LAGS at this concentration

CC(=O)[C@H]1CC[C@H]2[C@@H]3C[C@@H](O)C4=CC(=O)CC[C@]4(C)[C@H]3CC[C@]12C [6α-hydroxyprogesterone]
IC50 [3]: 5 µM

betamethasonenone
IC50 [3]: 5 µM

CC(=O)[C@H]1[C@H](C#N)C[C@H]2[C@@H]3CC=C4C[C@@H](O)CC[C@]4(C)[C@H]3CC[C@@]21C [PCN, pregnenolone 16-alpha carbonitrile]
competition with dexamethasone for binding to the LAGS (in words) [3]: compete with dexamethasone for binding to the LAGS | % proliferation versus control (100%), T6 cells ([4]; 10 μM): 55 +/− 17% | effect on cell proliferation (in words) (rat and human HSCs): inhibited in their ability to proliferate | Sirius red staining (collagens) in liver [5]: significantly reduced | blinded histological scoring of H&E stained liver sections, CCl4 versus CCl4/PCN treated rats [5]: no significant difference | liver serum (AST) enzyme levels, CCl4 versus CCl4/PCN treated rats [5]: no significant difference | number of cells and extent of α-smooth muscle actin staining in livers [5]: significantly reduced

CO[C@H]1C[C@H](O[C@H]2[C@H](C)[C@@H](O[C@@H]3O[C@H](C)C[C@H](N(C)C)[C@H]3OC(C)=O)[C@@H](C)C[C@@]3(CO3)C(=O)[C@H](C)[C@@H](OC(C)=O)[C@@H](C)[C@@H](C)OC(=O)[C@@H]2C)O[C@@H](C)[C@@H]1OC(C)=O [TAO, troleandomycin]
% proliferation versus control (100%), T6 cells ([4]; 100 μM): 106 +/− 2.8%

CC(C)(C(=O)c1cccnc1)c1cccnc1 [metyrapone]
% specific binding compared to dexamethasone alone, cytosol (glucocorticoid receptor; metyrapone, concentration not given, mean and SD of 3 samples): 105 +/− 4.0% | competition with dexamethasone for binding to the LAGS (in words) [3]: compete with dexamethasone for binding to the LAGS | % proliferation versus control (100%), T6 cells ([4]; 500 μM): 52 +/− 5.7% | % proliferation versus control (100%), human HSCs (human HSCs; 500 μM): 76 +/− 18% | effect on cell proliferation (in words) (rat and human HSCs): inhibited in their ability to proliferate | expression of α-smooth muscle actin (in words) ([1]; 200 μM metyrapone): inhibited expression of α-smooth muscle actin

CCC1(c2ccccc2)C(=O)NC(=O)NC1=O [phenobarbitone]
competition with dexamethasone for binding to the LAGS (in words) [3]: compete with dexamethasone for binding to the LAGS

CC(=NOCC(=O)O)[C@H]1CC[C@H]2[C@@H]3CCC4=C[C@@H](O)CC[C@]4(C)[C@H]3CC[C@]12C [4 pregnene-3β-ol-20-one carboxymethyloxime]
IC50 [3]: > 100 µM

Clc1ccccc1C(c1ccccc1)(c1ccccc1)n1ccnc1 [clotrimazole]
competition with dexamethasone for binding to the LAGS (in words) [3]: compete with dexamethasone for binding to the LAGS | % proliferation versus control (100%), T6 cells ([4]; 5 μM): 18 +/− 4.7% | % proliferation versus control (100%), human HSCs (human HSCs; 5 μM): 25 +/− 13% | effect on cell proliferation (in words) (rat and human HSCs): inhibited in their ability to proliferate | expression of α-smooth muscle actin (in words) ([1]; 1 μM clotrimazole): inhibited expression of α-smooth muscle actin

CC(=O)O[C@@H]1C[C@H]2[C@@H]3CC[C@H](C(C)=O)[C@@]3(C)CC[C@@H]2[C@@]2(C)CCC(=O)C=C12 [6β-progesterone acetate]
IC50 [3]: 0.5 µM

C[C@@H]1C[C@H]2[C@@H]3CCC4=CC(=O)C=C[C@]4(C)[C@@]3(F)[C@@H](O)C[C@]2(C)[C@@]1(O)C(=O)COS(C)(=O)=O [dexamethasone mesylate]
IC50 [3]: 10 µM

CC(=O)C1CCC2C3CCC4=CC(=O)CCC4(C)C3CCC12C (stereo not shown) [progesterone]
competition with dexamethasone for binding to the LAGS (in words) [3]: compete with dexamethasone for binding to the LAGS | effect on cell proliferation (in words) (rat and human HSCs): no effect

biotinylated dexamethasone
IC50 [3]: > 100 µM

CC(=O)[C@H]1CC[C@H]2[C@@H]3CCC4=CC(=O)CC[C@]4(C)[C@H]3[C@@H](OS(=O)(=O)c3ccc(C)cc3)C[C@]12C [11β-progesterone tosylate]
IC50 [3]: 10 µM

CC1CC2C3CCC4=CC(=O)C=CC4(C)C3(F)C(O)CC2(C)C1(O)C(=O)O (stereo not drawn) [17β-carboxylic acid derivative, 9α-fluoro 16α-methyl-11β,17α-dihydroxy-1,4-pregn-3-one 17-carboxylic acid]
IC50 [3]: 100 µM

CC(=O)O[C@@H]1C[C@]2(C)[C@@H](C(C)=O)CC[C@H]2[C@@H]2CCC3=CC(=O)CC[C@]3(C)[C@H]21 [11α-progesterone acetate]
IC50 [3]: 0.1 µM

CC#C[C@]1(O)CC[C@H]2[C@@H]3CCC4=CC(=O)CCC4=C3[C@@H](c3ccc(N(C)C)cc3)C[C@@]21C [RU486]
% specific binding compared to dexamethasone alone, cytosol (glucocorticoid receptor; 10 μM RU486, mean and SD of 3 samples): 0* % | activity at 10 µM [6]: 123%

CC(=O)[C@H]1CC[C@H]2[C@@H]3CCC4=CC(=O)CC[C@]4(C)[C@H]3[C@H](O)C[C@]12C [11α-hydroxyprogesterone]
IC50 [3]: 0.1 µM

C[C@@H]1C[C@H]2[C@@H]3CCC4=CC(=O)C=C[C@]4(C)[C@@]3(F)[C@@H](O)C[C@]2(C)[C@@]1(O)C(=O)CO [dexamethasone]
effect on cell proliferation (in words) (rat and human HSCs): no effect
